Data on one compound can be found in ChEMBL document CHEMBL4602709 (ACS Med Chem Lett, 2020).

For data set [1], the target named is Ephrin type-A receptor 4 (Homo sapiens) (UniProt P54764). The data set is described as follows: Inhibition of EPHA4 (unknown origin) assessed as residual activity at 10 uM incubated for 5 mins in presence of [gamma-33ATP] by scintillation counting based radiometry assay relative to control.
Data set [2] is described as follows: Cytotoxicity against HEK293 cells assessed as reduction in cell viability incubated for 72 hrs by Cell Titer Glo 2.0 reagent based assay. The following applies: human. (Cellular ATP, detected with luciferase, serves as a proxy for viable cell number.)
For data set [3], the target named is Proto-oncogene tyrosine-protein kinase Src (Homo sapiens, UniProt P12931). The data set is described as follows: Inhibition of SRC (unknown origin) assessed as residual activity incubated for 5 mins in presence of [gamma-33ATP] by scintillation counting based radiometry assay.
Data set [4] concerns the target Platelet-derived growth factor receptor alpha (Homo sapiens, UniProt P16234). Description: Inhibition of PDGFRalpha (unknown origin) assessed as residual activity incubated for 5 mins in presence of [gamma-33ATP] by scintillation counting based radiometry assay.
Data set [5] is described as follows: Cytotoxicity against human THLE3 assessed as reduction in cell viability incubated for 72 hrs by Cell Titer Glo 2.0 reagent based assay. Conditions: THLE3 cells.
The target of data set [6] is T1, Mitogen-activated protein kinase kinase kinase kinase 3 (Homo sapiens, UniProt Q8IVH8).
T1 sequence (Q8IVH8 whole entry): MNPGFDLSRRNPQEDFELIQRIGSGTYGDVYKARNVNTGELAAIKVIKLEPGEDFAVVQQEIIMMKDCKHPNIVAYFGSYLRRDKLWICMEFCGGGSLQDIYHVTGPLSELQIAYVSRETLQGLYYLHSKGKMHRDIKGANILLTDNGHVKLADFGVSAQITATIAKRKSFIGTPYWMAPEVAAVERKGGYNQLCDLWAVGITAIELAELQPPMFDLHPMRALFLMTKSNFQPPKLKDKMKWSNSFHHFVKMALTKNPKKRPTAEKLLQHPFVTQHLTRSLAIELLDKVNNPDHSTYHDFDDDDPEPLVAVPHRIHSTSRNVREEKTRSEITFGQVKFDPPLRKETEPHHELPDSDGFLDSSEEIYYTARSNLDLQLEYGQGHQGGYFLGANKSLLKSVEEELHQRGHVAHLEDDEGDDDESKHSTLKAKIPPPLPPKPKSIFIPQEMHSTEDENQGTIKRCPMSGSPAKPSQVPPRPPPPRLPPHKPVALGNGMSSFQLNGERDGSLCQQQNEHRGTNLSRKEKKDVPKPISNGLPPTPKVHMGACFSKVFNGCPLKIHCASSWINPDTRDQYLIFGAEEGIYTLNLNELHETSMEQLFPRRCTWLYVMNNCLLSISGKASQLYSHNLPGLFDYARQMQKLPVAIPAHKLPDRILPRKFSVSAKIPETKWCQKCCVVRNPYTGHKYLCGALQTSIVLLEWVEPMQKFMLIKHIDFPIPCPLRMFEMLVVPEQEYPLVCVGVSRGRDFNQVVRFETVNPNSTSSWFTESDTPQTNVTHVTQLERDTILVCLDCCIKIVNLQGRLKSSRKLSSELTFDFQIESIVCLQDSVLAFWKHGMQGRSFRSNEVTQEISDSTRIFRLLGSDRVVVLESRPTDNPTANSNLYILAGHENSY
The data set is described as follows: Inhibition of MAP4K3 (unknown origin) assessed as residual activity incubated for 5 mins in presence of [gamma-33ATP] by scintillation counting based radiometry assay.

Data set [7] concerns the target Serine/threonine-protein kinase Nek6 (Homo sapiens, UniProt Q9HC98). Description: Inhibition of NEK6 (unknown origin) assessed as residual activity incubated for 5 mins in presence of [gamma-33ATP] by scintillation counting based radiometry assay.
Data set [8] addresses Tyrosine-protein kinase ABL1 (Homo sapiens, UniProt P00519). Description: Inhibition of human ABL1 assessed as residual activity using EAIYAAPFAKKK as substrate by [gamma-33P]-ATP assay.
The target of data set [9] is T2, Discoidin domain-containing receptor 2 (Homo sapiens, UniProt Q16832).
T2 sequence (Q16832 whole entry): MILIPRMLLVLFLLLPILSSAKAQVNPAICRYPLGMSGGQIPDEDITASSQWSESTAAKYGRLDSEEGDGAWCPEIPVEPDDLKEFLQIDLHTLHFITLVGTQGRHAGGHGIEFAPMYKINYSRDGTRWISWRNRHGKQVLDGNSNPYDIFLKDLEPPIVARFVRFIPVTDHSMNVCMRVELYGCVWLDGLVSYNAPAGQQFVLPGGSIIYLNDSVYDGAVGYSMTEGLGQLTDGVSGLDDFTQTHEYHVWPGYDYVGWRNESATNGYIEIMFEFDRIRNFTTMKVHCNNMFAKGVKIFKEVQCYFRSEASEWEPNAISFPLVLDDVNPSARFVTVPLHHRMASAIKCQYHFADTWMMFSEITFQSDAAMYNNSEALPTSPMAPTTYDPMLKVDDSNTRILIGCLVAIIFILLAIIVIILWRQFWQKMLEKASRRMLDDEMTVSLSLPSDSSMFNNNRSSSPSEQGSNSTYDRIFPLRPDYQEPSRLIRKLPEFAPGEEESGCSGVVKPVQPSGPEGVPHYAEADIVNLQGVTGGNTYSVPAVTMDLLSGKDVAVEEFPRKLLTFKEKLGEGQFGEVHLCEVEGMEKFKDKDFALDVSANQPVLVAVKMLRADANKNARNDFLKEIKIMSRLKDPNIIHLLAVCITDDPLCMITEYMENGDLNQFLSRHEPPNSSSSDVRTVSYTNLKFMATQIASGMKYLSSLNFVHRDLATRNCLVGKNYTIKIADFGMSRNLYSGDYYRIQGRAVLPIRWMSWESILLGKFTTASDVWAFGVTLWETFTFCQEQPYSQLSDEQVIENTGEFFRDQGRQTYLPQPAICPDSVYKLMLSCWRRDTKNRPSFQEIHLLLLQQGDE
The data set is described as follows: Inhibition of DDR2 (unknown origin) assessed as residual activity incubated for 5 mins in presence of [gamma-33ATP] by scintillation counting based radiometry assay.

For data set [10], the target named is Ephrin type-A receptor 4 (Homo sapiens) (UniProt P54764). The data set is described as follows: Inhibition of EPHA4 (unknown origin) assessed as residual activity incubated for 5 mins in presence of [gamma-33ATP] by scintillation counting based radiometry assay.

Ephrin type-A receptor 4 (Homo sapiens), sequence (P54764 whole entry, looked up): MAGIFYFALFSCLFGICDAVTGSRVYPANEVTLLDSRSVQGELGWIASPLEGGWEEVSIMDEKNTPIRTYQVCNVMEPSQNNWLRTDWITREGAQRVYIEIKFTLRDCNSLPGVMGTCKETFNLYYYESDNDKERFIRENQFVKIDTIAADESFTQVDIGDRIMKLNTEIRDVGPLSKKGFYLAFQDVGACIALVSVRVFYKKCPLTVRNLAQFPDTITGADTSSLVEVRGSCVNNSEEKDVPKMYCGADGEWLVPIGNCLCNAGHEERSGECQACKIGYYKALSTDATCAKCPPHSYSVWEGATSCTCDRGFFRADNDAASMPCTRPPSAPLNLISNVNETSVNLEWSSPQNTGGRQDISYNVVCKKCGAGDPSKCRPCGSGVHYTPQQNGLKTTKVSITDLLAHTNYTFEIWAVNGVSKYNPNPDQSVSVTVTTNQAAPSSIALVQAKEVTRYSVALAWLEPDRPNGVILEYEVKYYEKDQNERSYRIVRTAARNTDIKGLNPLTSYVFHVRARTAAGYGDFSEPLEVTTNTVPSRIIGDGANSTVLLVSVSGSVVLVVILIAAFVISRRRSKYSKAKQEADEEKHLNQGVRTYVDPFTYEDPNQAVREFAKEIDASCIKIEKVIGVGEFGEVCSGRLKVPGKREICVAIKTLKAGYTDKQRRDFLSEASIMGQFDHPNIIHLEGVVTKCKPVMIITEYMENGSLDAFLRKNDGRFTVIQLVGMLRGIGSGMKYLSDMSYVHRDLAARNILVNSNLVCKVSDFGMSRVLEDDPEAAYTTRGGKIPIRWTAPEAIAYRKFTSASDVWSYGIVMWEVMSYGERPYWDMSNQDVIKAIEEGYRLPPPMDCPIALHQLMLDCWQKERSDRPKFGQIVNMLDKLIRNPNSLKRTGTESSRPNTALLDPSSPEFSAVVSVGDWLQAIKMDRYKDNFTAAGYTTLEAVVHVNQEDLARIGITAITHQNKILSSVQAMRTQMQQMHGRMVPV
Platelet-derived growth factor receptor alpha, sequence (P16234 whole entry): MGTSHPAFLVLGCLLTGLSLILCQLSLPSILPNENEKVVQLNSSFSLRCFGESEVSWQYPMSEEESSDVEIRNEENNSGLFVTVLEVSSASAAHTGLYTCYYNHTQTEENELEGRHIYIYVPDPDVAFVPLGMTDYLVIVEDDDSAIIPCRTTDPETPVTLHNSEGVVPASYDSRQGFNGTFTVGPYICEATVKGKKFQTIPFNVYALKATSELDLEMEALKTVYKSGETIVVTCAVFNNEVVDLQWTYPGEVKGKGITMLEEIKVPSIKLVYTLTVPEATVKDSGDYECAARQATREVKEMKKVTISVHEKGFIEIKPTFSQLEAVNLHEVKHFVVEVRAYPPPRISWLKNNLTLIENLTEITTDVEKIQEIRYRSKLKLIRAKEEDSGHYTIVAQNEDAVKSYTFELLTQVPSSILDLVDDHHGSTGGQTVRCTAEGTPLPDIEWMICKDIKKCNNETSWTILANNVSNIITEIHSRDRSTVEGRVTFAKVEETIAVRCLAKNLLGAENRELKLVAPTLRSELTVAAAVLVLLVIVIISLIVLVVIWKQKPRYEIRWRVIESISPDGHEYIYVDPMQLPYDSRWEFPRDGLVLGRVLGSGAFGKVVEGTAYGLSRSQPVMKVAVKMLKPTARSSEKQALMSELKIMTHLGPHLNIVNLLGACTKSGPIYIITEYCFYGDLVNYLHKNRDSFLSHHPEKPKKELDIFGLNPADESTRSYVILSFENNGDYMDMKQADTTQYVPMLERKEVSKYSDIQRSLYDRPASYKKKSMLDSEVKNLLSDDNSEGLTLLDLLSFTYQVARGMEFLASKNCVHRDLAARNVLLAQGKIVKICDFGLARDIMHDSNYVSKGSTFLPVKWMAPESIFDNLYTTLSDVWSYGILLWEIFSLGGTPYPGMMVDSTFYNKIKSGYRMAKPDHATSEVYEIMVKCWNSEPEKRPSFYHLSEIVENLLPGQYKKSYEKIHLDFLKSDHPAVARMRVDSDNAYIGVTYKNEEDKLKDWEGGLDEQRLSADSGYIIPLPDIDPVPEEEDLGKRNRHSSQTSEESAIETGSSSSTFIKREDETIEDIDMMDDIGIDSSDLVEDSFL
Proto-oncogene tyrosine-protein kinase Src, sequence (P12931 2-536 limits assumed): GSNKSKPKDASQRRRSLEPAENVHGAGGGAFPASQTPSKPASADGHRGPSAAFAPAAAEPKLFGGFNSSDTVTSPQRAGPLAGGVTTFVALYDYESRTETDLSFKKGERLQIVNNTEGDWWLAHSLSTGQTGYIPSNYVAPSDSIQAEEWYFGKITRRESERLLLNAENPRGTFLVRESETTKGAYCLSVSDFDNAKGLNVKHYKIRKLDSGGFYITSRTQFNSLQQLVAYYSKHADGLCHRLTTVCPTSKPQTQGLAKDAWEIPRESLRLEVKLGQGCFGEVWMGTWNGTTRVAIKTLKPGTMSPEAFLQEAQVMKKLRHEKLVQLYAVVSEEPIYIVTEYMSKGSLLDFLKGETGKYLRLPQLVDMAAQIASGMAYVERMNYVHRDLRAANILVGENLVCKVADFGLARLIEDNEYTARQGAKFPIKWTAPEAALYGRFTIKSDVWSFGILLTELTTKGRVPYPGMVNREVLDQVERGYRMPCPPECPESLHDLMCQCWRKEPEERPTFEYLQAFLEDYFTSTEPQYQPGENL
Serine/threonine-protein kinase Nek6, sequence (Q9HC98 whole entry): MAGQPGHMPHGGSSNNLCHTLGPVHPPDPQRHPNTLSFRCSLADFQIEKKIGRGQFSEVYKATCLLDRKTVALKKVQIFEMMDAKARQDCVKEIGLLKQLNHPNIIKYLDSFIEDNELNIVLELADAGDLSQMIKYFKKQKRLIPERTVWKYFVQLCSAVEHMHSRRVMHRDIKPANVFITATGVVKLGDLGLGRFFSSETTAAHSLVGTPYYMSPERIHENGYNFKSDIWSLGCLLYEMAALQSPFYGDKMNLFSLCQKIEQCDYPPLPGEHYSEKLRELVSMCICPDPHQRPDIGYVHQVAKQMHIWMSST
Tyrosine-protein kinase ABL1, sequence (P00519 whole entry, the tested form may be a part): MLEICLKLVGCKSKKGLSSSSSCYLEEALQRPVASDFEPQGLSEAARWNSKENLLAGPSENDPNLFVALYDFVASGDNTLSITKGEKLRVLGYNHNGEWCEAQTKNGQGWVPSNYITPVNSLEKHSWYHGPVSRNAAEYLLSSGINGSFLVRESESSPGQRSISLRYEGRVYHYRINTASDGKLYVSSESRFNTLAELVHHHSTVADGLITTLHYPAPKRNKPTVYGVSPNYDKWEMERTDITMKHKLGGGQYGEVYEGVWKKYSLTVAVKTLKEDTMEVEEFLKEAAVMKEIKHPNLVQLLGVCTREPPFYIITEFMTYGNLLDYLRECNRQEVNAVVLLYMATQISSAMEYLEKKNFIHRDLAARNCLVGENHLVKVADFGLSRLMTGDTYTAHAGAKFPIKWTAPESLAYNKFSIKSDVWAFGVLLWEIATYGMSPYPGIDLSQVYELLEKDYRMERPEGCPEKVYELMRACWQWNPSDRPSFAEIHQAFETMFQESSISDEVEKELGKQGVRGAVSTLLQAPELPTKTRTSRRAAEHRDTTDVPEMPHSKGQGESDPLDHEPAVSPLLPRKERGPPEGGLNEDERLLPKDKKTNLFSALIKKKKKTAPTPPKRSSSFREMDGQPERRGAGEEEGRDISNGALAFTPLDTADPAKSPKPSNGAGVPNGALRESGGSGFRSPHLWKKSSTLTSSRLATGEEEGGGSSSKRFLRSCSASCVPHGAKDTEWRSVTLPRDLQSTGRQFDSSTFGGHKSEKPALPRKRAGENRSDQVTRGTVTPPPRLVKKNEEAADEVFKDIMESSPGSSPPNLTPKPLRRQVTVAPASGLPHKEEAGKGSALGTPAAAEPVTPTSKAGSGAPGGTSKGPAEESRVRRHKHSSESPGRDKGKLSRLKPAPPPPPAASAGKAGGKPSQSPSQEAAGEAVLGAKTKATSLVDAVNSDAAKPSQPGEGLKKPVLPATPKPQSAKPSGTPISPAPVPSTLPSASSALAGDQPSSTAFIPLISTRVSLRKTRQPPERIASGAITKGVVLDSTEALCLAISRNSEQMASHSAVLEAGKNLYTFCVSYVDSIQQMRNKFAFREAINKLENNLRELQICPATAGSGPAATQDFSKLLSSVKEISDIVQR

In the case of `Cc1ccc(C(=O)Nc2ccc(CN3Cc4cn[nH]c4C3)c(Cl)c2)cc1C#Cc1cnc2cccnn12`, the Activity in data set [1] was 2%. Further, the cytotoxic concentration (CC50) at 72 h in [2] and in data set [5] was more than 50000 nM in each case. Moreover, the IC50 (usually the concentration at which inhibition is half-maximal) in data set [3] stood at 431 nM; in data set [4], 2 nM; in [6], 240 nM; in data set [7], 5350 nM; in data set [8], 8.31 nM; in [9], 286 nM. Further, the IC50 in data set [10] was determined as 84.6 nM.
